Experimental data from patent US10653676B2 (Dana-Farber Cancer Institute, Inc., priority 2010, dated 2020).

Legend:
USP1/UAF1 complex [1] = target: T1, USP1/UAF1 complex (Homo sapiens, UniProt O94782, G670A/G671A); settings: bioactive libraries; in the range of Al-Ub-treated positive control; previously shown, US 2008/0167229 A1; cited from earlier work
T1 construct: This modified full length USP1 clone was PCR amplified and subcloned into pFastBac-HT vectors; His tag (N); made in house; host or cells: Sf9 insect cells (baculovirus)

[2] = tested on: HR pathway-proficient breast tumor line; settings: preliminary xenograft studies, data not shown
Excerpt: Preliminary breast cancer xenograft studies with one HR pathway-proficient breast tumor line have been conducted.

USP1/UAF1 complex [3] = target: T1, USP1/UAF1 complex; test: high throughput screening for inhibitors of USP1 deubiquitinating activity; assay type: biochemical; settings: library of approximately 150,000 compounds
Protocol: The ubiquitin-Rho based enzyme assay for high throughput screening was established in a 384-well format. The reaction buffer containing and USP1/UAF1 complex were added in 384 well plates using automated liquid handling robot-Bio-Tek Microfill (Bio-Tek Instrments Inc., VT), followed by addition of the compounds (in DMSO) from the compound library plates to wells using a pin transfer robotic system at a final concentration of 10 μM. The reaction was composed of 0.1 nM purified USP1/UAF complex, 75 nM ubiquitin Rhodamine (Ub-Rho, Boston Biochem, U-600) and 2 μM ubiquitin. Fluorescence was monitored in a FluoStar Galaxy Fluorometer (BMG Labtech). Fluorescence emission at 535 nm (λex=485 nm) was measured in an automated plate reader Envision 2 (Perkin Elmer, Mass.).
(§1) In order to develop a highly sensitive assay with easy readout for high throughput detection, the fluorogenic compound Ubiquitin-7-amido-4-methylcoumarin (AMC-Ub, Boston Biochem) was used as a substrate for USP1/UAF1 enzyme complex. USP1 catalyzes the cleavage of AMC-Ub, releasing free AMC moiety, which leads to increase in fluorescence emission at 460 nm (λex=380 nm). Dang et al. (1998) Biochemistry 37:1868-79. Catalytic activity towards AMC-Ub increases 35 fold compared to USP1 enzyme alone. Initial enzyme assay development was performed in 96-well plates with 100 μl reaction volume containing 20 mM HEPES-KOH, 0.1 mg/ml ovalbumin (Sigma), 0.5 mM EDTA, and 10 mM DTT. 2.5 nM USP1/UAF1 enzyme complex was mixed with the reaction buffer, incubated at 37° C. for 10 minutes and then 0.3 μM AMC-Ub was added. Fluorescence was measured using a Fluostar Galaxy Fluorometer (BMG Labtech Inc.).
Once the preliminary enzyme assay was established in 96-well format, it was optimized for 384 wells for high throughput screening (HTS) of inhibitors. The major points to be considered were the volume of the reaction and amount of AMC-Ub substrate to be used in the assay. Since the price of AMC-Ub is very high, in order to make it a feasible assay for HTS, lowest workable amount of the AMC conjugate was used. Reaction volume was minimized to 30 μl in order to meet the recommendation of ICCB-L screening facility (Harvard). In the preliminary optimization experiment, a series of pilot experiments were performed with varying AMC-Ub concentrations (0.025 μM to 0.2 μM), along with the varying concentration of USP1/UAF1 complex (0.2 nM to 3.2 nM). […] After incubating the enzyme and buffer at 37° C. for 10 minutes, AMC-Ub was added and fluorescence emission at 460 nm (λex=380 nm) was measured in an automated plate reader Envision 2 (Perkin Elmer). Fluorescence reading for all time points up to one hour was noted and the data for different AMC-Ub concentration range was plotted with each USP1/UAF1 enzyme complex concentration. […]

USP1/UAF1 complex [4] = target: T1, USP1/UAF1 complex; test: ubiquitin-AMC in vitro deubiquitination enzyme assay; assay type: biochemical; settings: 4 hour preincubation; AMC-Ub in vitro enzyme assay; read-out: IC50
Protocol: Purified USP1/UAF1 complex was incubated with 1 μM C527 or DMSO for indicated time, followed by the addition of Ub-AMC at 0.5 μM final concentration. The fluorescence at […] was measured to indicate the enzymatic activity of USP1. […] 5A.
The in vitro enzymatic assays were performed using purified proteins from Sf9 cells as described previously (Cohn et al.). The assays using ubiquitin-AMC (Ub-7-amido-4-methylcoumarin; Boston Biochem) as substrate was carried out in a reaction buffer containing 20 mM HEPES-KOH (pH 7.8), 20 mM NaCl, 0.1 mg/ml ovalbumin, 0.5 mM EDTA and 10 mM dithiothreitol. The fluorescence was measured by FluoStar Galaxy Fluorometer (BMG Labtech). For the Ub-vinylsulfone (VS) assay, the proteins were incubated with Ub-VS at 0.5 μM final concentration for 1 h at 30° C., followed by the immunoblotting analysis.
as §1, with “Catalytic activity towards AMC-Ub increases 35 fold compared to USP1 enzyme alone.” left out
Hits from the initial screening were analyzed further in secondary screening. In this step, the compounds were re-tested for inhibition using the AMC-Ub in vitro enzyme assay. After reconfirming inhibition, different concentration range of the inhibitors were tested to show dose dependency of inhibition and IC50 calculation.

HeLa cells = test: DNA damage response markers by immunoblotting; assay type: cell-based, human; settings: 24 hrs, MMC 1 μM positive control, FIG. 9A
Protocol: FIG. 9 is a composite figure showing that C527 causes DNA damage and inhibits the proliferation of tumor cells. […] HeLa cells were treated with C527 at the indicated concentrations for 24 hrs, and cells were subjected to immunoblotting. Mitomycin C (MMC, 1 μM) was used as a positive control. […] HeLa cells were seeded in a 6-well plate and treated with C527 at the indicated concentrations. Cell proliferation was evaluated using a clonogenic assay.
Impaired HR integrity may lead to genotoxic effect. Genotoxic agents are known to directly activate DNA damage response pathways, resulting in FANCD2 monoubiquitination and CHK1 phosphorylation (FIG. 9A).

[5] = tested on: endogenous DUB enzyme complexes; test: HA-Ub-VS labelling of other endogenous DUBs in HeLa cell extracts; assay type: biochemical, human; settings: HeLa cell extracts pretreated 4 h (Ub-Ald 5 μM), then Ub-VS 40 min at 30° C.; FIG. 7
Protocol: FIG. 7 is a composite figure depicting preferential inhibition of the activity of native USP1/UAF1 by C527. HeLa cell extracts were incubated with ubiquitin-aldehyde (Ub-Ald, 5 μM) or C527 at indicated concentrations for 4 h, followed by the addition of 0.5 μM Ub-Vs for 40 min. The reaction was split into two aliquots and subjected to immunoblotting for HA or USP1, respectively.
The ability of C527 to inhibit the deubiquitinating activity of native USP1 complexes derived from human cells was determined next (FIG. 7). For this purpose, the HA-tagged ubiquitin-VS, an affinity reagent known to covalently modify and trap active DUB enzymes in cell extracts was used. Cell extracts prepared from HeLa cells were pretreated with increasing concentrations of C527 for 4 h, followed by the incubation with Ub-VS for 40 min at 30° C. The enzymatic activity of endogenous DUBs was indicated by the conjugation of Ub-VS, detected as HA-labeling (see FIG. 7, high molecular weight bands). […] Ub-VS conjugation was inhibited by ubiquitin-aldehyde (Ub-Ald), a non-specific inhibitor of DUBs (lane 3).

T1 sequence (O94782 whole entry G670A/G671A): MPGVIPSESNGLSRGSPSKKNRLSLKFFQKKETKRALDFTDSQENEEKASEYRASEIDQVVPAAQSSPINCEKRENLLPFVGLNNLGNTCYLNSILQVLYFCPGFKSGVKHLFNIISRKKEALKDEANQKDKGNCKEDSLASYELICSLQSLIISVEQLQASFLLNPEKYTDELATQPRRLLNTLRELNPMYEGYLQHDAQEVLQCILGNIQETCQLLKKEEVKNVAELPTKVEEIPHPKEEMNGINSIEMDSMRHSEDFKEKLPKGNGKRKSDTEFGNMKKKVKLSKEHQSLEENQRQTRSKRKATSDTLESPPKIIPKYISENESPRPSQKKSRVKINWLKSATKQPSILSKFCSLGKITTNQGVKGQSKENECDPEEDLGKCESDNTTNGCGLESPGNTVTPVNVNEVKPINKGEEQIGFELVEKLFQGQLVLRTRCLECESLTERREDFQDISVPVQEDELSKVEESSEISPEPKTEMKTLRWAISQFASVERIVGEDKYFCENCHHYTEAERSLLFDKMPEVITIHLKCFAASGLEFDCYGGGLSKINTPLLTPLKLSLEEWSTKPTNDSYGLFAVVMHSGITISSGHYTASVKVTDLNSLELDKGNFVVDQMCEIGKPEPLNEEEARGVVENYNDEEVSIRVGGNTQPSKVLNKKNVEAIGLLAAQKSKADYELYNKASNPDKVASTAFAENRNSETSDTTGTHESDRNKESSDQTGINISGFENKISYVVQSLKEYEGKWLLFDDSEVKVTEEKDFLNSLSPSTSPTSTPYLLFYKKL
T1 sequence (Q8TAF3 whole entry partner): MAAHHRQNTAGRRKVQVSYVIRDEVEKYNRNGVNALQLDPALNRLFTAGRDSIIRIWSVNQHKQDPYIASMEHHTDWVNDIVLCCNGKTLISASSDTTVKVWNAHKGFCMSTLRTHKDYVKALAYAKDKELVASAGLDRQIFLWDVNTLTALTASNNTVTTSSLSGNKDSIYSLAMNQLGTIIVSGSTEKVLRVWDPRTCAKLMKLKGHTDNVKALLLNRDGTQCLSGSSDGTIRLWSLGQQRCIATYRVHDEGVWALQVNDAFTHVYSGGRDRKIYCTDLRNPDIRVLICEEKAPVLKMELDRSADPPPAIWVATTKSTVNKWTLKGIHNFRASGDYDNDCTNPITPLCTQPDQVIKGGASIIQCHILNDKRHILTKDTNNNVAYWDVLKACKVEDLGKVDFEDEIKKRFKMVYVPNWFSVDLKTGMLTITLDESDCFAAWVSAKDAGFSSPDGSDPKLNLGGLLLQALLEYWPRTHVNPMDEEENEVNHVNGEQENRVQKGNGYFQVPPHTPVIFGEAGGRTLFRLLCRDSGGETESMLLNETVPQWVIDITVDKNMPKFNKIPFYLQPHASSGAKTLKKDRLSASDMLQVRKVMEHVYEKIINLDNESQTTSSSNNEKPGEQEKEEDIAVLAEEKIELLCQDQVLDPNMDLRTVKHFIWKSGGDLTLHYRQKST

Compound | fluorescence signal in high throughput screen (USP1/UAF1 complex [1]) | identified as inhibitor of USP1 in initial in vitro screening (USP1/UAF1 complex [3]) | also measured
CC[N+](C)(CC)CCC[n+]1c(-c2ccccc2)c2cc(N)ccc2c2ccc(N)cc21.[I-].[I-] [Biomol AP401 (propidium iodide), propidium iodide] | substantial low fluorescence signal |  | 
CC(C)C[C@H](NC(=O)[C@H](Cc1ccccc1)NC(=O)c1cnccn1)B(O)O [Bortezomib] |  |  | FA/BRCA pathway [2]: inhibited the FA/BRCA pathway
NC1=C(Cl)C(=O)c2ccccc2C1=O [Formula III (933)] |  | inhibitors of USP1 | 
O=C1Cc2ccccc2C(=O)N1Cc1ccco1 [Formula V (947)] |  | inhibitors of USP1 | IC50 (USP1/UAF1 complex [4]): 7.5 µM
COc1ccc(CN2C(=O)Cc3ccccc3C2=O)cc1OC [Formula VI (009)] |  | inhibitors of USP1 | IC50 (USP1/UAF1 complex [4]): 2.4 µM
CO[C@@]12[C@H](COC(N)=O)C3=C(C(=O)C(C)=C(N)C3=O)N1C[C@@H]1N[C@@H]12 [MMC, mitomycin C] |  |  | markers of the DNA damage response (FANCD2 monoubiquitination, CHK1 phosphorylation) (HeLa cells): can activate markers of the DNA damage response
CCCCCCCCCCCCCCCC(=O)C1=C(O)C(CO)OC1=O (centres unmarked) [RK-682] | substantial low fluorescence signal |  | 
CC1(C)CCC2=C(O1)c1ccccc1C(=O)C2=O [β-lapachone] | substantial low fluorescence signal |  | 
Ub-aldehyde [reference compound] |  |  | Ub-VS labeling of endogenous DUBs (HA-labeling) [5]: inhibited
